# Reference: ChEMBL document CHEMBL2321847, “Ligand-based discovery of N-(1,3-dioxo-1H,3H-benzo[de]isochromen-5-yl)-carboxamide and sulfonamide derivatives as thymidylate synthase A inhibitors” (Bioorg Med Chem Lett, 2013)
# Legend:
# [1] = biological target: Thymidylate synthase (Escherichia coli K-12, UniProt P0A884); assay: Inhibition of Escherichia coli thymidylate synthase A
# [2] = biological target: Thymidylate synthase (Homo sapiens, UniProt P04818)
# Description: Inhibition of human thymidylate synthase A
# [3] = biological target: T1, Dihydrofolate reductase (Homo sapiens, UniProt P00374); assay: Inhibition of human DHFR
# T1 sequence (P00374 whole entry): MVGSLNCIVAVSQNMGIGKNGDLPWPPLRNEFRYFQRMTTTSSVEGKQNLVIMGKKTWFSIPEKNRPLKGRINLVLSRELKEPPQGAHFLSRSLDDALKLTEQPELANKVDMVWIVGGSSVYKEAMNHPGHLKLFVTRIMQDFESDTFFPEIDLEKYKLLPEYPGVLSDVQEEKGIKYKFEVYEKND
# Sequence of Thymidylate synthase (Homo sapiens, UniProt P04818) (P04818 whole entry): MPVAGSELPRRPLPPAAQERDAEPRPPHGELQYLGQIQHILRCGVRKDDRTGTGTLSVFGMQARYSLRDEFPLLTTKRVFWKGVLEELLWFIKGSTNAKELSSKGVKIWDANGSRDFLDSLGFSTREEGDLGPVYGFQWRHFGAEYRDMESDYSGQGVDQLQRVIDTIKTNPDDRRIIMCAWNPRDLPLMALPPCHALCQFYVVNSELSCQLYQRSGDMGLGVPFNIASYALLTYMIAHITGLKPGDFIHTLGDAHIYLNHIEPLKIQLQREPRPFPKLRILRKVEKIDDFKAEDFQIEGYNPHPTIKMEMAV
# Sequence of Thymidylate synthase (Escherichia coli K-12, UniProt P0A884) (P0A884 whole entry): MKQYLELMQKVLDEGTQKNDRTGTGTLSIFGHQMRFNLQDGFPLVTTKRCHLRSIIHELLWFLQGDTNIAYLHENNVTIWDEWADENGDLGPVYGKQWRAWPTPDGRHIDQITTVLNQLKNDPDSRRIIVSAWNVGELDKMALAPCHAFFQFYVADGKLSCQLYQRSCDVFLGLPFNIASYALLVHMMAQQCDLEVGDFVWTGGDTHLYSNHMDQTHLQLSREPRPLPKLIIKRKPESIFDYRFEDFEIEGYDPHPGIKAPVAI
Structure (SMILES),Ki [1] [µM],Ki [2] [µM],Ki [3] [µM]
O=C1OCc2cccc3cccc1c23,> 304,47,
N#CC(C#N)=c1c(=O)c2cccc3cccc1c32,> 294,> 309,
Cn1cc(-c2ccc(S(=O)(=O)Nc3cc4c5c(cccc5c3)C(=O)OC4=O)s2)cc1C(F)(F)F,1.9,,
O=C1Sc2cccc3cccc1c23,> 196,3.1,
O=C1C(=O)c2ccc(Oc3ccc([N+](=O)[O-])cc3)c3cccc1c23,> 103,> 98,
O=C1/C(=N/c2ccccc2)c2cccc3cccc1c23,> 294,> 309,
Cc1ccc2c3c(cccc13)C(=O)CC2,> 294,3.1,
CC1(C)C(=O)c2cccc3cccc(c23)C1=O,> 588,33,
O=C1OC(c2ccccc2)(c2ccccc2)c2cccc3cccc1c23,> 294,> 309,
O=C(Nc1cc2c3c(cccc3c1)C(=O)OC2=O)c1cccc([N+](=O)[O-])c1,7.3,,> 110
O=C(Nc1cc2c3c(cccc3c1)C(=O)OC2=O)c1ccc([N+](=O)[O-])cc1,17,,
O=C(Nc1cc2c3c(cccc3c1)C(=O)OC2=O)c1ccc(C(F)(F)F)cc1,6.4,> 206,
O=C(Nc1cc2c3c(cccc3c1)C(=O)OC2=O)c1cccc(C(F)(F)F)c1,4.4,,
O=C(Nc1cc2c3c(cccc3c1)C(=O)OC2=O)c1ccc(Cl)c([N+](=O)[O-])c1,4,,
O=C(Nc1cc2c3c(cccc3c1)C(=O)OC2=O)c1sc2ccccc2c1Cl,6.5,> 411,> 55
O=C1OC(=O)c2cc(NS(=O)(=O)c3ccccc3)cc3cccc1c23,4.2,,

Structure (SMILES),Ki [1] [µM],Ki [2] [µM],Ki [3] [µM]
O=C1OC(=O)c2cc(NS(=O)(=O)c3cccc([N+](=O)[O-])c3)cc3cccc1c23,2.1,,
O=C1OC(=O)c2cc(NS(=O)(=O)c3ccc([N+](=O)[O-])cc3)cc3cccc1c23,1.2,,
O=C1OC(=O)c2cc(NS(=O)(=O)c3cccs3)cc3cccc1c23,2.2,,
O=C1OC(=O)c2cc(NS(=O)(=O)c3ccc(C(F)(F)F)cc3[N+](=O)[O-])cc3cccc1c23,1.3,,
O=C1OC(=O)c2cc(NS(=O)(=O)c3ccc(S(=O)(=O)c4ccccc4)s3)cc3cccc1c23,1.2,,
O=C1OC(=O)c2cc(NS(=O)(=O)c3cc(Cl)sc3Cl)cc3cccc1c23,4.6,,
O=C1OC(=O)c2cc(NS(=O)(=O)c3cccc4ccccc34)cc3cccc1c23,1.1,,
O=C1OC(=O)c2cc(NS(=O)(=O)c3cccc4cccnc34)cc3cccc1c23,2.9,,
O=C1OC(=O)c2cc(NS(=O)(=O)c3cccc4nsnc34)cc3cccc1c23,0.9,,
O=C(Nc1cc2c3c(cccc3c1)C(=O)OC2=O)c1ccc2c(c1)OCO2,7.4,,
O=C(/C=C/c1ccccc1Cl)Nc1cc2c3c(cccc3c1)C(=O)OC2=O,32.3,> 616,
O=C(/C=C/c1cccc(C(F)(F)F)c1)Nc1cc2c3c(cccc3c1)C(=O)OC2=O,10.6,> 206,
Cc1onc(-c2ccccc2Cl)c1C(=O)Nc1cc2c3c(cccc3c1)C(=O)OC2=O,44.7,> 826,
Cc1onc(-c2c(F)cccc2Cl)c1C(=O)Nc1cc2c3c(cccc3c1)C(=O)OC2=O,6.1,,> 332
O=C1OC(=O)c2cc(NS(=O)(=O)/C=C/c3ccccc3)cc3cccc1c23,0.3,,

# Next, values leading:
Ki [1] [µM],Ki [2] [µM],Ki [3] [µM],Structure (SMILES)
> 265,4.2,,O=C1Oc2cccc3cccc1c23
105,,,O=C1OC(=O)c2ccc(Cl)c3cccc1c23
26.8,,,O=C(O)c1ccc2c3c(cccc13)C(=O)OC2=O
> 784,> 824,,O=C1OC(=O)c2ccc(S(=O)(=O)O)c3cccc1c23
> 451,> 474,,O=C1OC(=O)c2ccc(SCCO)c3cccc1c23
> 588,,,CCOC(=O)CSc1ccc2c3c(cccc13)C(=O)OC2=O
> 152,> 160,,Nc1ccc2c3c(cccc13)C(=O)OC2=O
> 196,> 206,,O=C1OC(=O)c2cc([N+](=O)[O-])cc3cccc1c23
6.8,> 412,,Nc1cc2c3c(cccc3c1)C(=O)OC2=O
21.6,> 823,,Nc1ccc(C(=O)Nc2cc3c4c(cccc4c2)C(=O)OC3=O)cc1
6.7,,,O=C(Nc1cc2c3c(cccc3c1)C(=O)OC2=O)c1ccc([N+](=O)[O-])o1
5.3,,,O=C(Cc1cccs1)Nc1cc2c3c(cccc3c1)C(=O)OC2=O
7.1,,,COC(=O)CCC(=O)Nc1cc2c3c(cccc3c1)C(=O)OC2=O
> 294,,,"O=C1OC(=O)c2cccc3cccc1c23 [1,8-NAPHTHALIC ANHYDRIDE]"
